The text below walks through data of patent publication US20110183978A1, “Phenylpyri(mi)dinylazoles” (Bayer CropScience AG, priority 2009, published 2011).

By chromatographic logP is commonly meant a lipophilicity value derived from retention on a column.

The first data set can be described thus: physchem. The following applies: LogPA.
For `CC(C)C(=O)Nc1cc(-c2cn(Cc3cccc(C#N)c3)nc2-c2ccc(F)cc2)ccn1` [Compound 308], the chromatographic logP came out at 2.69.

As for `COCC(=O)Nc1cc(-c2c(-c3ccc(F)cc3O)nn(C)c2OC(F)F)ccn1` [Compound 201], the chromatographic logP was determined as 2.38.

`CCOC(=O)Nc1cc(-c2cn(Cc3ccccc3F)nc2-c2ccc(F)cc2)ccn1` [Compound 266] yielded a chromatographic logP of 3.24.

The molecule `CC(C)Cn1cc(-c2ccnc(N(C(=O)C(C)C)C(=O)C(C)C)n2)c(-c2ccc(F)cc2)n1` [Compound 188] gave a chromatographic logP of 4.74.

On to `CC(C)n1cc(-c2ccnc(NC(c3ccccc3)C(F)(F)F)c2)c(-c2ccc(F)cc2)n1` (stereo not drawn) [Compound 325], for which the chromatographic logP was found to be 3.66.

Regarding `CCOC(=O)Nc1cc(-c2cn(C(C)c3ccccc3F)nc2-c2ccc(F)cc2)ccn1` (stereo not drawn) [Compound 263], the chromatographic logP was found to be 3.65.

Consider `Cn1cc(-c2ccnc(NC(=O)c3ccc(F)cc3)c2)c(-c2ccc(F)cc2)n1` [Compound 344], for which the chromatographic logP came to 2.61.

The molecule `CC(C)Nc1nccc(-c2cn(CCCl)nc2-c2ccc(F)cc2)n1` [Compound 359] gave a chromatographic logP of 2.05.

Consider `CC(C)Nc1nccc(-c2c[nH]nc2-c2ccc(F)cc2)n1` [Compound 172], for which the chromatographic logP was determined as 1.37.

As to `COCC(=O)Nc1cc(-c2c(-c3ccc(Cl)cc3F)nn(C)c2C(F)(F)F)ccn1` [Compound 202], the chromatographic logP amounted to 3.45.

Regarding `CC(C)n1cc(-c2ccnc(NC(=O)C3CC3)n2)c(-c2ccc(F)cc2)n1` [Compound 356], the chromatographic logP was determined as 2.49.

As to `CCn1cc(-c2ccnc(NC(=O)CCCCC(=O)OC)c2)c(-c2ccc(F)cc2)n1` [Compound 330], the chromatographic logP turned out to be 2.16.

Still in this data set, the particulars now being: LogPA (logP of the stated pure compound or, in a mixture, of the main isomer, 1-substituted 3-aryl-1H-pyrazole).
Take `Fc1ccc(-c2nn(Cc3ccncc3)cc2-c2ccncc2)cc1` [Compound 121]: the chromatographic logP turned out to be 0.25.

Consider `CSc1nccc(-c2cn(C3CCCCO3)nc2-c2ccc(F)cc2)n1` (stereo not drawn) [Compound 74], for which the chromatographic logP was found to be 3.58.

`CCC(C)n1ncc(-c2ccncc2)c1-c1c(F)cccc1F` (stereo not drawn) [Compound 38]: the chromatographic logP was determined as 1.9.

Regarding `Fc1ccc(-c2nn(-c3cc(C(F)(F)F)ncn3)cc2-c2ccncc2)cc1` [Compound 112], the chromatographic logP came out at 2.73.

Turning to `O=C(Nc1ccccc1)c1cc(-c2cn(C3CCCCO3)nc2-c2cccc(Cl)c2)ccn1` (stereo not drawn) [Compound 96], the chromatographic logP was 4.89.

On to `COc1ccc(-c2nn(C3CCCCO3)cc2-c2ccncc2)cc1` (stereo not drawn) [Compound 43], for which the chromatographic logP was 1.24.

Regarding `CCNc1cc(-c2cn(C3CCCCO3)nc2-c2ccc(F)cc2)ncn1` (stereo not drawn) [Compound 63], the chromatographic logP is 1.42.

With `CC(C)Cn1cc(-c2ccnc3c2CC(=O)N3)c(-c2ccc(F)cc2)n1` [Compound 147], the chromatographic logP was 2.6.

As for `FC(F)(F)c1cccc(-c2nn(C3CCCCO3)cc2-c2cc(N3CCOCC3)ncn2)c1` (stereo not drawn) [Compound 36], the chromatographic logP came to 2.1.

`C=CCNc1nccc(-c2cnn(CC(C)C)c2-c2ccc(F)cc2)n1` [Compound 149]: the chromatographic logP amounted to 2.37.

In the case of `Fc1ccc(-c2c(-c3ccncc3)cnn2C2CCCCO2)cc1Cl` (stereo not drawn) [Compound 51, 4-[5-(3-chloro-4-fluorophenyl)-1-(tetrahydro-2H-pyran-2-yl)-1H-pyrazol-4-yl]pyridine], the chromatographic logP came to 1.57.

As to `COc1ccc(-c2nn(C3CCCCO3)cc2-c2ccnc(N)c2)cc1` (stereo not drawn) [Compound 69], the chromatographic logP stood at 1.31.

With `Fc1ccc(-c2nn(Cc3ccc(OC(F)F)cc3)cc2-c2ccncc2)cc1` [Compound 109], the chromatographic logP is 1.88.

Turning to `Fc1ccc(-c2nn(-c3ccc(C(F)(F)F)cn3)cc2-c2ccncc2)cc1` [Compound 79], the chromatographic logP amounted to 2.64.

Turning to `CS(=O)(=O)c1ccc(-c2c(-c3ccncc3)cnn2C2CCCCO2)cc1` (stereo not drawn) [Compound 68, 4-{5-[4-(methylsulphonyl)phenyl]-1-(tetrahydro-2H-pyran-2-yl)-1H-pyrazol-4-yl}pyridine], the chromatographic logP turned out to be 0.96.

Staying with this data set, now noted: pH 2.3, LogP (pH 2.3).
As to `c1ccc(Oc2cccc(-c3c(-c4ccncc4)cnn3C3CCCCO3)c2)cc1` (stereo not drawn) [[X-16], 4-[5-(3-phenoxyphenyl)-1-(tetrahydro-2H-pyran-2-yl)-1H-pyrazol-4-yl]pyridine], the chromatographic logP was 1.88.

With `CC(C)On1cc(B2OC(C)(C)C(C)(C)O2)c(-c2ccc(F)cc2)n1` [[V-5], 3-(4-Fluorophenyl)-1-isopropoxy-4-(4,4,5,5-tetramethyl-1,3,2-dioxaborolan-2-yl)-1H-pyrazole], the chromatographic logP was determined as 4.81.

As for `CC(C)(C)OC(=O)N1CCC(n2cc(Br)c(-c3ccc(F)cc3)n2)CC1` [[VI-27], Tert-butyl 4-[4-bromo-3-(4-fluorophenyl)-1H-pyrazol-1-yl]piperidin-1-carboxylate], the chromatographic logP worked out at 4.77.

`Fc1ccc(-c2c(-c3ccncc3)cnn2C2CCCCO2)c(F)c1` (stereo not drawn) [[X-8], 4-[5-(2,4-difluorophenyl)-1-(tetrahydro-2H-pyran-2-yl)-1H-pyrazol-4-yl]pyridine] came in with a chromatographic logP of 1.35.

Molecule `CC(C1CC1)n1cc(Br)c(-c2ccc(F)cc2)n1` (stereo not drawn) [[VI-22], 4-Bromo-1-(1-cyclopropylethyl)-3-(4-fluorophenyl)-1H-pyrazole] had a chromatographic logP of 4.43.

In turn, `N#Cc1cccc(-c2c(-c3ccncc3)cnn2C2CCCCO2)c1` (stereo not drawn) [[X-11], 3-[4-(pyridin-4-yl)-1-(tetrahydro-2H-pyran-2-yl)-1H-pyrazol-5-yl]benzonitrile] had a chromatographic logP of 1.23.

`Fc1ccc(-c2c(-c3ccncc3)cnn2C2CCCCO2)cc1` (stereo not drawn) [[X-1], 4-[5-(4-Fluorophenyl)-1-(tetrahydro-2H-pyran-2-yl)-1H-pyrazol-4-yl]pyridine] came in with a chromatographic logP of 1.23.

For `CC(C)Cn1nc(-c2ccc(F)cc2)c(Br)c1OC(F)F` [[VI-b-3], 4-Bromo-5-(difluoromethoxy)-3-(4-fluorophenyl)-1-isobutyl-1H-pyrazole], the chromatographic logP amounted to 4.91.

The molecule `COc1ccc(-c2c(-c3ccncc3)cnn2C2CCCCO2)c2ccccc12` (stereo not drawn) [[X-2], 4-[5-(4-methoxy-1-naphthyl)-1-(tetrahydro-2H-pyran-2-yl)-1H-pyrazol-4-yl]pyridine] came in with a chromatographic logP of 1.61.

As to `Clc1cccc(-c2c(-c3ccncc3)cnn2C2CCCCO2)c1Cl` (stereo not drawn) [[X-20], 4-[5-(2,3-dichlorophenyl)-1-(tetrahydro-2H-pyran-2-yl)-1H-pyrazol-4-yl]pyridine], the chromatographic logP turned out to be 1.66.

`CC(CC#N)n1cc(Br)c(-c2ccc(F)cc2)n1` (stereo not drawn) [[VI-21], 3-[4-Bromo-3-(4-fluorophenyl)-1H-pyrazol-1-yl]butanonitrile] displayed a chromatographic logP of 3.08.

The molecule `CCC(C)n1cc(Br)c(-c2ccc(F)cc2)n1` (stereo not drawn) [[VI-19], 4-Bromo-1-sec-butyl-3-(4-fluorophenyl)-1H-pyrazole] came in with a chromatographic logP of 4.39.

On to `COCCn1cc(Br)c(-c2ccc(F)cc2)n1` [[VI-6], 4-Bromo-3-(4-fluorophenyl)-1-(2-methoxyethyl)-1H-pyrazole], for which the chromatographic logP worked out at 3.08.

The same data set, now with this note: pH 2.7, logP (pH 2.7).
In the case of `CC(C)n1cc(-c2ccnc3ccccc23)c(-c2ccc(F)cc2)n1` [[I-1], 4-[3-(4-Fluorophenyl)-1-isopropyl-1H-pyrazol-4-yl]quinoline], the chromatographic logP was found to be 2.23.

In turn, `CCC(=O)Nc1cc(-c2cn(CCOC)nc2-c2ccc(F)cc2)ccn1` [[I-2], N-{4-[3-(4-Fluorophenyl)-1-(2-methoxyethyl)-1H-pyrazol-4-yl]pyridin-2-yl}propanamide] gave a chromatographic logP of 1.61.

The molecule `O=C(Cc1ccncc1)c1c(F)cccc1F` [[XXV-1], 1-(2,6-Difluorophenyl)-2-(pyridin-4-yl)ethanone] returned a chromatographic logP of 0.62.

Consider `CC1(C)OB(c2ccnc(NC(=O)CC3CC3)c2)OC1(C)C` [[XV-a-5], 2-Cyclopropyl-N-[4-(4,4,5,5-tetramethyl-1,3,2-dioxaborolan-2-yl)pyridin-2-yl]acetamide], for which the chromatographic logP was found to be 0.27.

Molecule `CC(C)On1cc(B2OC(C)(C)C(C)(C)O2)c(-c2ccc(F)cc2)n1` [[V-5], 3-(4-Fluorophenyl)-1-isopropoxy-4-(4,4,5,5-tetramethyl-1,3,2-dioxaborolan-2-yl)-1H-pyrazole] displayed a chromatographic logP of 4.81.

The molecule `CC(C)(C)OC(=O)N1CCC(n2cc(Br)c(-c3ccc(F)cc3)n2)CC1` [[VI-27], Tert-butyl 4-[4-bromo-3-(4-fluorophenyl)-1H-pyrazol-1-yl]piperidin-1-carboxylate] gave a chromatographic logP of 4.77.

On to `COc1cc(F)ccc1-c1nn(C)c(OC(F)F)c1Br` [[VI-b-4], 4-Bromo-5-(difluoromethoxy)-3-(4-fluoro-2-methoxyphenyl)-1-methyl-1H-pyrazole], for which the chromatographic logP is 3.15.

`Fc1ccc(-c2[nH]nc(C3CC3)c2-c2ccncc2)cc1` [[IX-b-2], 4-[3-(4-Fluorophenyl)-5-cyclopropyl-1H-pyrazol-4-yl]pyridine] had a chromatographic logP of 0.92.

`CC(C)Nc1nccc(-c2c[nH]nc2-c2ccc(F)cc2)n1` [[XLVI-1], 4-[3-(4-fluorophenyl)-1H-pyrazol-4-yl]-N-isopropylpyrimidin-2-amine] yielded a chromatographic logP of 1.37.

Take `CC(C1CC1)n1cc(Br)c(-c2ccc(F)cc2)n1` (stereo not drawn) [[VI-22], 4-Bromo-1-(1-cyclopropylethyl)-3-(4-fluorophenyl)-1H-pyrazole]: the chromatographic logP came out at 4.43.

On to `Fc1ccc(-c2c(-c3ccncc3)cnn2C2CCCCO2)cc1` (stereo not drawn) [[X-1], 4-[5-(4-Fluorophenyl)-1-(tetrahydro-2H-pyran-2-yl)-1H-pyrazol-4-yl]pyridine], for which the chromatographic logP was determined as 1.23.

Consider `CC(C)Cn1nc(-c2ccc(F)cc2)c(Br)c1OC(F)F` [[VI-b-3], 4-Bromo-5-(difluoromethoxy)-3-(4-fluorophenyl)-1-isobutyl-1H-pyrazole], for which the chromatographic logP came out at 4.91.

In turn, `CC(C)Nc1nccc(CC(=O)c2ccc(F)cc2)n1` [[XLIV-1], 1-(4-fluorophenyl)-2-[2-(isopropylamino)pyrimidin-4-yl]ethanone] returned a chromatographic logP of 2.05.

Regarding `CC(CC#N)n1cc(Br)c(-c2ccc(F)cc2)n1` (stereo not drawn) [[VI-21], 3-[4-Bromo-3-(4-fluorophenyl)-1H-pyrazol-1-yl]butanonitrile], the chromatographic logP worked out at 3.08.

`CCC(C)n1cc(Br)c(-c2ccc(F)cc2)n1` (stereo not drawn) [[VI-19], 4-Bromo-1-sec-butyl-3-(4-fluorophenyl)-1H-pyrazole] registered a chromatographic logP of 4.39.

In turn, `CCOC(=O)Nc1cc(B2OC(C)(C)C(C)(C)O2)ccn1` [[XV-a-6], Ethyl [4-(4,4,5,5-tetramethyl-1,3,2-dioxaborolan-2-yl)pyridin-2-yl]carbamate] came in with a chromatographic logP of 0.

`COCCn1cc(Br)c(-c2ccc(F)cc2)n1` [[VI-6], 4-Bromo-3-(4-fluorophenyl)-1-(2-methoxyethyl)-1H-pyrazole] yielded a chromatographic logP of 3.08.

Take `CC(C)n1cc(-c2ccnc(N)n2)c(-c2ccc(F)cc2)n1` [[III-a-1], 4-[3-(4-Fluorophenyl)-1-isopropyl-1H-pyrazol-4-yl]pyrimidin-2-amine]: the chromatographic logP turned out to be 1.54.

`N#Cc1cccc(Cn2ncc(-c3ccncc3)c2-c2ccc(F)cc2)c1` [[I-4], 3-{[5-(4-Fluorophenyl)-4-(pyridin-4-yl)-1H-pyrazol-1-yl]methyl}benzonitrile] came in with a chromatographic logP of 1.38.

`CC(C)Nc1nccc(C(=CN(C)C)C(=O)c2ccc(F)cc2)n1` [[XLV-1], 3-(Dimethylamino)-1-(4-fluorophenyl)-2-[2-(isopropylamino)pyrimidin-4-yl]prop-2-en-1-one]: the chromatographic logP was determined as 1.45.
